# Source: patent US10988444B2, “Antimicrobial compounds” (NEWSOUTH INNOVATIONS PTY LIMITED, priority 2016, dated 2021)
# Several values for one entry are separate records, joined by “and”; a condition that tells them apart may be missing. Equal values may be shown once. Read-outs that look alike come from different tables or passages of the source.
# Tests used:
# [1] = system: MRC-5 normal human lung fibroblasts; assay: Cytotoxicity assay, Alamar blue, Example 2; format: cell-based; conditions: for IC50: Homo sapiens, MRC5, MRC-5, concentration which killed half of the cells
# Protocol: The in vitro toxicity of the compounds (24a, 38b, 42d, 43d) was determined against MRC-5 normal human lung fibroblasts using the Alamar blue assay (see O'Brien, J.; Wilson, I.; Orton, T.; Pognan, F. Eur. J. Biochem. 2000, 267 (17), 5421-5426). A dose-response curve for each compound was generated to determine the IC50 values (concentration of compound which killed half of the cells) and the IC50 values were then used to determine the therapeutic window (IC50 value divided by MIC value) and specificity of the compounds (Table 3).
# [2] = Membrane conduction, tBLMs containing 30% POPG, Example 2; conditions: negatively charged lipid, 50 μM, preliminary study
# Excerpt: Tethered bilayer lipid membranes (tBLMs) associated with alternating current electrical impedance spectroscopy techniques were employed to determine whether the compounds (24a, 38b, 42d, 43d) are lytic to cell membranes. Sparsely tethered tBLMs containing 30% palmitoyl-oleoyl-phosphati-dylglycerol (POPG) were created using the solvent-exchange technique described by Cranfield et al. in 2015 (see Cranfield, C. G.; Bettler, T.; Cornell, B. Langmuir 2015, 31 (1), 292-298). The tBLM conduction responses of compounds (24a, 38b, 42d, 43d) were compared to that of LL-37, a cathelicidin AMP that is known to permeabilise membranes.
# S. aureus (SA38) = assay: Minimal inhibitory concentration (MIC) assay, Example 2; format: cell-based; conditions: Staphylococcus aureus, TSB, 37° C., 24 h
# Protocol: A single colony of bacteria was cultured overnight in TSB at 37° C. The resulting bacterial culture was collected by centrifugation and re-suspended in TSB twice. The optical density (OD) of the resulting culture was adjusted to OD600=0.1 in TSB (equivalent to 10^8 colony forming unit (CFU)/mL bacteria), and was further diluted to 10^5 CFU/mL in TSB. 100 μL of the bacterial solution was then added to wells of a 96-well plate containing 100 μL serially diluted compound, with final concentration ranging from 8-250 μM. The plates were then incubated at 37° C. for 24 h and the data was recorded by measuring the OD value at 600 nm using a Wallac Victor (Perkin-Elmer) microplate reader. […] Each experiment was performed in triplicate and was repeated in two independent experiments. The results of the MIC assay are given below in Table 2.
# E. coli [3] = assay: Biofilm disruption assay, established biofilms, crystal violet staining; format: cell-based; conditions: 250 μM, 24 h treatment
# Protocol: (§1) Bacterial cultures were grown in TSB media for overnight at 37° C. with shaking at 150 r.p.m. Cultures were diluted (1:20) in YPD medium and 200 μl aliquots were dispensed to flat bottom 96-well plate wells (Sarstedt Australia). Cultures were supplemented with varying concentrations of synthetic compounds dissolved in water. For pre-established biofilm assay, cultures were grown in 96-well plate wells overnight prior to supplementation with synthetic compounds. Control cultures were supplemented with an equal amount of DMSO. Plates were sealed with self-adhesive microplate sealers (TopSeal-A, PerkinElmer) to allow air diffusion and to prevent condensation. Cultures were incubated overnight at 37° C. with shaking at 150 r.p.m. Biofilms adhered on polystyrene substratum were quantified by crystal violet staining as described previously (see Wiegand, I.; Hilpert, K.; Hancock, R. E. W. Nat. Protocols 2008, 3 (2), 163-175). All cultures were prepared in triplicates. Error bars represent the standard error of three independent experiments (n=3).
# (§2) The biofilm disruption activities of the compounds were investigated using crystal violet staining according to a previously published protocol (G. A. O'Toole, J Vis Exp, 2011, (47), pii: 2437, DOI: 10.3791/2437, 2437). The ability of compounds (34-38, 51-56, 61, 62, 65 and 66) to disrupt the established biofilms of the Gram-positive bacteria S. aureus and the Gram-negative bacteria Pseudomonas aeruginosa, Serratia marcescens and E. coli, was determined at a concentration of 250 μM. In this assay, bacterial cultures were grown on a polystyrene substratum overnight prior to treatment with the compounds. In addition, the ability of these compounds to inhibit the formation of biofilms of P. aeruginosa and S. marcescens was also investigated at 250 μM, whereby the bacterial cultures were grown in the presence of test compounds.
# S. marcescens [4] = assay: Biofilm inhibition assay (inhibition of biofilm formation), crystal violet staining; format: cell-based; conditions: Serratia marcescens, 24 h
# Protocol: as §1, with “no-established” for “pre-established”, “along” for “prior to supplementation”, “water.” for “DMSO.”
# as §2
# [5] = system: MRC-5 normal human lung fibroblasts; assay: Toxicity assay, Alamar blue, Example 1; format: cell-based; conditions: for IC50: Homo sapiens, MRC5, 72 h incubation, read-out: toxicity (IC50) against MRC-5 human fibroblast cells
# Protocol: The normal human lung fibroblasts MRC-5 were cultured in minimal essential medium (MEM, Invitrogen) supplemented with 10% foetal calf serum (FCS), 1% L-glutamine-penicillin-streptomycin, 2% sodium bicarbonate, 1% non-essential amino acids (NEAA) and 1% sodium pyruvate. The cell line was maintained at 37° C. in 5% CO2 as an adherent monolayer and was passaged upon reaching confluence by standard cell culture techniques. MRC-5 cells were seeded at 2×10^4 cells per well in 96-well plates to ensure full confluence (quiescence). Cells were treated 24 h after seeding with 0.1 to 1000 μM of compounds. After 72 h drug incubation, the treated media was replaced with fresh media containing 10% Alamar blue and the cells were incubated for another 6 h. The metabolic activity was detected by spectrophotometric analysis by assessing the absorbance of Alamar blue as previously described by Pasquier et. al (see Pasquier, E.; Ciccolini, J.; Carre, M.; Giacometti, S.; Fanciullino, R.; Pouchy, C.; Montero, M.-P.; Serdjebi, C.; Kavallaris, M.; André, N. Oncotarget 2011, 2, 797).
# Cell proliferation was determined and expressed as a percentage of untreated control cells. The determination of IC50 values was performed using GraphPad Prism 6 (San Diego, Calif., USA).
# To further evaluate the utility of these novel guanylated peptidomimetics for medical applications, it was essential to determine their specificity towards bacterial cells over mammalian cells.
# E. coli [6] = assay: Minimal inhibitory concentration (MIC) determination, Example 1; format: cell-based; conditions: 24 h, MHB, 37° C.; for MIC: Escherichia coli, read-out: Minimum inhibitory concentration (MIC) E. coli
# Protocol: (§3) The antibacterial activity of the compounds was determined by the determination of minimal inhibitory concentration (MIC) by following the previously published protocol (see Nizalapur, S.; Ho, K. K.; Kimyon, Ö.; Yee, E.; Berry, T.; Manefield, M.; Cranfield, C. G.; Willcox, M.; Black, D. S.; Kumar, N. Org. Biomol. Chem. 2016, 14, 3623). The compounds to be tested were dissolved and diluted in autoclaved Millipore water. A single colony of bacteria was cultured overnight in TSB at 37° C. The resulting bacteria were collected by centrifugation and re-suspended in the same volume of MHB twice. Optical density (OD) of the resulting culture was adjusted to 0.1 at 600 nm (10^8 CFU/mL) in MHB, and the adjusted culture was further diluted to […] in MHB. Then, 100 μL of the bacterial solution was added to wells of a 96-well plate containing 100 μL of serially diluted compound. Two controls were also prepared: one containing 100 μL of MHB media and 100 μL sterile water, and the other containing 100 μL of bacterial solution and 100 μL sterile water. […] The MIC value was determined as the lowest concentration of compound that inhibited the complete growth of the bacteria (i.e. OD similar to that of the control having no bacteria). Each experiment was performed in triplicate and was repeated in three independent experiments.
# (§4) The results of the MIC assay are given below in Table 1.
# S. aureus [7] = assay: as above; format: cell-based; conditions: Staphylococcus aureus
# Protocol: as §3, §4
# [8] = system: Pseudomonas aeruginosa (PAO1); assay: Biofilm disruption assay, established biofilms, crystal violet staining; format: cell-based; conditions: 250 μM, 24 h treatment
# Protocol: as §1, §2
# S. marcescens [9] = assay: as above; format: cell-based, Serratia marcescens; conditions: 250 μM, 24 h treatment
# Protocol: as §1, §2
# S. aureus [10] = assay: as above; format: cell-based; conditions: 250 μM, 24 h treatment
# Protocol: as §1, §2
# [11] = MHB, 37° C., 24 h, read-out: Minimum inhibitory concentration (MIC) S. aureus
# [12] = MIC in μM as compared with MRC-5 IC50, read-out: equivalent MIC values
SMILES,MIC (S. aureus (SA38)) [µM],MIC (E. coli [6]) [µg/mL],MIC (S. aureus [7]; [11]) [µg/mL],IC50 [1] [µM],tBLM conduction response [2],inhibition at 250 µM (S. marcescens [4]) [%],MIC (S. aureus [7]; [12]) [µM],further results
"CCCCCCCCS(=O)(=O)Nc1ccc(Br)cc1C(=O)C(=O)NCCN(C)C.Cl [Compound 38b, 2-(2-(5-Bromo-2-(octylsulfonamido)phenyl)-2-oxoacetamido)-N,N-dimethylethan-1-aminium chloride]",63,–,–,75.5,showed conduction responses,–,–,–
"CCCCCCCCS(=O)(=O)Nc1ccc(Br)cc1C(=O)C(=O)NCCCNC(=N)N.Cl [Compound 43d, 2-(5-Bromo-2-(octylsulfonamido)phenyl)-N-(3-guanidinopropyl)-2-oxoacetamide hydrochloride]",12,–,–,178,showed conduction responses,–,–,–
"Cl.N=C(N)NCCCNC(=O)C(=O)c1cc(Cl)ccc1NC(=O)c1ccc2ccccc2c1 [Compound 36, N-(4-Chloro-2-(2-((3-guanidinopropyl)amino)-2-oxoacetyl)phenyl)-2-naphthamide hydrochloride]",–,> 110,8,–,–,71,16,disruption of established biofilms of E. coli (E. coli [3]): 43%; IC50 [5]: 224 µM
"CCCCCCCCS(=O)(=O)Nc1ccccc1C(=O)C(=O)NCCCNC(=N)N.Cl [Compound 42d, N-(3-Guanidinopropyl)-2-(2-(octylsulfonamido)phenyl)-2-oxoacetamide hydrochloride]",47,–,–,373,showed conduction responses,–,–,–
"Cl.N=C(N)NCCCNC(=O)C(=O)c1cc(Br)ccc1NC(=O)c1ccc2ccccc2c1 [Compound 35, N-(4-Bromo-2-(2-((3-guanidinopropyl)amino)-2-oxoacetyl)phenyl)-2-naphthamide hydrochloride]",–,> 110,6,–,–,–,12.5,disruption of established biofilms of E. coli (E. coli [3]): 46%; disruption of established biofilms of S. marcescens (S. marcescens [9]): 49%; IC50 [5]: 174 µM
"CCCCCCCCS(=O)(=O)Nc1ccc(Br)cc1C(=O)C(=O)NCCCN(C)C [Compound 24a, 2-(5-Bromo-2-(octylsulfonamido)phenyl)-N-(3-(dimethylamino)propyl)-2-oxoacetamide]",47,–,–,37.4,showed conduction responses,–,–,toxicity to human cells ([1]; MRC-5): high level of toxicity to human cells

# Continued, in another order:
MIC (S. aureus (SA38)) [µM],MIC (E. coli [6]) [µg/mL],MIC (S. aureus [7]; [11]) [µg/mL],SMILES,IC50 [1] [µM],tBLM conduction response [2],inhibition at 250 µM (S. marcescens [4]) [%],MIC (S. aureus [7]; [12]) [µM],further results
–,50,10,"COC(=O)[C@H](CCCNC(=N)N)NC(=O)[C@H](CCCNC(=N)N)NC(=O)C(=O)c1cc(Br)ccc1NC(=O)c1ccc2ccccc2c1.Cl.Cl [Compound 66, Methyl (2-(2-(2-naphthamido)-5-bromophenyl)-2-oxoacetyl)arginylargininate dihydrochloride]",–,–,69,15.7,disruption of established biofilms of P. aeruginosa ([8]; dihydrochloride): 54% and 55%; toxicity (IC50) against MRC-5 human fibroblast cells ([5]; 72 h incubation): not reaching a 50% reduction of cell viability at the highest tested dose
–,67,108,"Cl.N=C(N)NCCCC[C@H](NC(=O)C(=O)c1cc(F)ccc1NC(=O)c1ccc2ccccc2c1)C(=O)O [Compound 53, N^2-(2-(2-(2-naphthamido)-5-fluorophenyl)-2-oxoacetyl)-N^6-carbamimidoyllysine hydrochloride]",–,–,67,–,disruption of established biofilms of S. aureus (S. aureus [10]): 46%; disruption of established biofilms of P. aeruginosa [8]: 42%; disruption of established biofilms of S. marcescens (S. marcescens [9]): 40%; Minimum inhibitory concentration (MIC) E. coli (E. coli [6]; hydrochloride): 68 µg/mL
